Data: patent US20100099122A1 (priority 2008, published 2010)
Entries after “also recorded” stand apart in the source; their conditions may differ. Where two headings read alike, the source gives them in different places.

Assays:
H. capsulatum Ggt1 = H. capsulatum Ggt1 (Histoplasma ohiense, UniProt A0ACF1AEB1); type: biochemical
[1] = system: H. capsulatum Ggt1 (GSH-FeR); type: biochemical, Histoplasma capsulatum; details: inhibitor 0.1 mM, 15 min pretreatment, then removed by diafiltration, GSH-FeR activity
[2] = system: H. capsulatum Ggt1 (GSH-FeR); details: cited from earlier work

| Compound | Fe^3+ reduction catalyzed by γ-Glutamyltransferase (Ggt1), effect of inhibitor [1] | Glu transfer catalyzed by γ-Glutamyltransferase (Ggt1), effect of inhibitor (H. capsulatum Ggt1) | further results |
| --- | --- | --- | --- |
| N[C@@H](CCC(=O)Nc1ccc([N+](=O)[O-])cc1)C(=O)O [GpNA, γ-glutamyl-p-nitroanilide] | – | – | Km (H. capsulatum Ggt1; read-out: apparent optimal Km for GpNA, glutamyl transfer reaction): ~840 µM; Km (H. capsulatum Ggt1; read-out: apparent optimal Km for GpNA, hydrolysis): ~750 µM |
| N[C@@H](CS)C(=O)NCC(=O)O [cysteinylglycine] | – | – | ability to reduce iron compared to the activity of 1 mM GSH (1 mM): over 117 fold; iron reduction activity (ferrous iron generated) (0.5-1 mM): generated measurable amounts of ferrous iron; iron reduction by cysteinylglycine alone (pH 5.5): 2.85±0.08 μmol of Fe^2+ min^−1 (mmol CysGly)^−1 |
| [Ga] [gallium] | strong inhibitory effect; also recorded: Inhibition | no inhibitory action; also recorded: No effect | inhibition of GSH-FeR activity [2]: reversibly inhibited |
| serine/borate complex [SBC] | completely abolished; also recorded: Inhibition | completely abolished; also recorded: Inhibition | – |
| [Al] [Aluminum, aluminum] | strong inhibitory effect; also recorded: Inhibition | no inhibitory action; also recorded: No effect | inhibition of GSH-FeR activity [2]: reversibly inhibited |
| N[C@H](C(=O)O)[C@@H]1CC(Cl)=NO1 [Acivicin, acivicin] | Inhibition | completely abolished; also recorded: Inhibition | Fe^3+ reduction catalyzed by γ-Glutamyltransferase (Ggt1), effect of inhibitor ([1]; listed as acivicin): completely abolished |
| [N-]=[N+]=CC(=O)CC[C@H](N)C(=O)O [DON, 6-diazo-5-oxo-L-norleucine] | completely abolished; also recorded: Inhibition | completely abolished; also recorded: Inhibition | – |
